Experiments:
NHLF cells = assay: Mitochondrial membrane potential (MTMP) analysis in NHLF; assay type: cell-based, human; details: measured with MTMP, Caspase3 and LDH, FIG. 20
MCF7 cells = assay: Immunocytochemistry for multinucleation of MCF7 cells; assay type: cell-based, human; details: MCF7, treated by concentration
A549 cells [1] = assay: Intracellular ROS (H2DCFDA) in A549 cells; assay type: cell-based; details: A549, various concentrations, 24 hours
Experimental: To this end, 1×10^4 cells/mL of A549 cells were dispensed in 96-well plates, and after 24 hours, the cells were treated with 10 μM H2DCFDA (Invitrogen, CA) and incubated at 37° C. in the dark for 1 hour. […] Intracellular ROS were examined by fluorescence microscopy (Thermo, MA) and quantified by fluorescence spectroscopy (Perkin Elmer, MA).

PC3 cells [2] = assay: Immunocytochemistry for multinucleation of PC3 cells; assay type: cell-based, human; details: PC3, treated by concentration
PC3 = assay: CCK-8 cell proliferation assay in PC3 cells; assay type: cell-based; details: Homo sapiens, PC-3; PC3, CCK-8, 72 hours
A549 cells [3] = assay: Immunocytochemistry of p53, p21 and p16 in A549 cells; assay type: cell-based
Experimental: A549 cell line was treated with 1, 5, 10 and 20 μM of the compound of the present invention (ONG41008), respectively, and after 24 or 72 hours, the cells were fixed by using 4% paraformaldehyde, permeabilized with 0.4% TritonX100 and blocked with 1% BSA. The cells were incubated with Anti-p53 (Cell Signaling Technology, Beverly, MA), Anti-p21 (Abcam, Cambridge, UK) and Anti-p16-INK4A (Proteintech, IL, USA) at room temperature for 4 hours. After washing, the cells were incubated with Alexa Fluor 488 (Abcam, Cambridge, UK)-conjugated secondary antibody. Images were analyzed by using EVOS M7000 (Invitrogen, CA, USA). Nuclei were counterstained with DAPI.

PANCI cells = assay: Immunocytochemistry for multinucleation of PANC1 cells; assay type: cell-based, human; details: PANC1, treated by concentration
A549 cells [4] = assay: Western blot of p53, phospho-p53, p21 and p16 in A549 cells; assay type: cell-based
Experimental: After 24 hours, the cell lysates were clarified by centrifugation at 14,000×g for 10 minutes, and the supernatant was collected. Protein concentration was quantified by Bradford assay (Thermo Fisher, Massachusetts, USA). Afterwards, 25 μg of cellular protein was loaded onto a 10% SDS-PAGE gel and transferred to a nitrocellulose membrane. After blocking with 5% BSA, the membrane was incubated overnight at 4° C. with Anti-p53 (Cell Signaling Technology, Beverly, MA), Anti-phosphor-p53 (Cell Signaling Technology, Beverly, MA), Anti-p21 (Abcam, Cambridge, UK), Anti-p16-INK4A (Proteintech, IL, USA) and Anti-GAPDH (Abcam, Cambridge, UK). After thorough washing, the membrane was incubated with HRP-conjugated secondary antibody. Protein bands were visualized by using ECL reagent (Abfrontier, Korea) and Uvitec HD9 (UVITEC, UK).

H1299 cells = assay: Immunocytochemistry for multinucleation of H1299 cells; assay type: cell-based; details: H1299, treated by concentration
A549 cells [5] = assay: Mitochondrial membrane potential (TMRE) analysis in A549 cells
H358 cells [6] = assay: CCK-8 cell proliferation assay in H358 cells; assay type: cell-based
Experimental: (§1) H358 cells were seeded in 96-well plates at a concentration of 3×10^4 cells/well for 24 hours.

A549 cells [7] = assay: TUNEL and 7AAD apoptosis analysis of A549 cells; assay type: cell-based
Experimental: The TUNEL analysis was performed by using the TUNEL assay kit (Abcam, ab66110) according to the manufacturer's instructions. […] After 24 hours, the cells were harvested and fixed in cold 70% ethanol, and 50 μL of a DNA labeling solution (10 μL of TdT reaction buffer, […], 8 μL of Br-dUTP, 32.5 μL of ddH2O) was added thereto. After 1-hour incubation at 37° C., the cells were washed twice with 300 μL of rinse buffer, and an antibody solution (5 μL of Anti-BrdU-Red antibody, 95 μL rinse buffer) was prepared and added to the washed cells, and the cells were incubated in the dark at room temperature for 30 minutes. 300 μL of 7-AAD/RNase solution was added at last. Each sample was analyzed by using Accuri C6 Plus (BD Bioscience).

PANC1 = assay: CCK-8 cell proliferation assay in PANC1 cells; assay type: cell-based, human
PC3 cells [8] = assay: Caspase-3/7 activity (apoptosis) in PC3 cells; assay type: cell-based, human; details: PC3, Caspase-3/7 activity
Experimental: Caspase-3/7 activity was measured by using a Caspase-3/7 assay kit (Promega, G8091). […] Afterwards, Caspase-3/7 activity was analyzed according to the manufacturer's protocol.

MCF7 = assay: CCK-8 cell proliferation assay in MCF7 cells; assay type: cell-based; details: Homo sapiens; MCF7, CCK-8, 72 hours
[9] = tested on: Normal human lung fibroblasts (NHLF); assay: CCK-8 cell proliferation assay in normal human lung fibroblasts; assay type: cell-based; details: CCK-8, FIG. 19
H358 cells [10] = assay: Microscopic observation of H358 cells; assay type: cell-based; details: H358, 10 μM, 72 hours
Experimental: as §1

A549 cells [11] = assay: NAD+/NADH colorimetric assay in A549 cell lysates; assay type: cell-based
Experimental: To this end, total NAD was extracted and quantified from A549 cell lysates by using the NAD+/NADH Colorimetric Assay Kit (Abcam, ab65348) according to the manufacturer's protocol. 1×10^6 cells were lysed in 400 μL NAD/NADH extraction buffer, filtered through a 10 kD spin column (ab93349) and measured in pure water or 1/5 dilution. Briefly, the amount of total NAD was calculated by dividing the standard curve (pmol) by the sample volume (μL) added to the reaction wells and multiplying by the dilution factor.

[12] = A549, mitochondrial membrane potential analysis

COc1ccc(-c2cc(=O)c3c(O)c(OC)c(OCCN4CCNC(=O)C4)cc3o2)cc1OC [ONG41008]
apoptosis in normal cells (NHLF cells): did not induce significant apoptosis | multinucleation (MCF7 cells): observed | ROS (A549 cells [1]): increased in a concentration-dependent manner | multinucleation (PC3 cells [2]): observed | IC50 (PC3): 32 µM | TP53 nuclear localization (A549 cells [3]; A549, 1 μM, 24 hours): nuclear localization was observed | TP53 protein expression level (A549 cells [3]; A549, 1 μM, 24 hours): not changed | p16 expression (A549 cells [3]; A549, 1, 5, 10 and 20 μM, 24 hours): up-regulated in proportion to the concentration | p21 expression and localization (A549 cells [3]; A549, 24 hours): nuclear localized with upregulation | multinucleation (PANCI cells): observed | p16 induction (A549 cells [4]; A549, 24 hours): induced in a concentration-dependent manner | p21 induction (A549 cells [4]; A549, 24 hours): induced in a concentration-dependent manner | total amount of TP53 (A549 cells [4]; A549, 24 hours): maintained to be the same | TP53 phosphorylation (A549 cells [4]; A549, various concentrations, 24 hours): phosphorylated in proportion to the increase in the concentration | multinucleation (H1299 cells): observed | difference between IC50 of SAHA and ONG41008 (A549 cells [5]; A549, FIG. 6): ~20 fold | day until which inhibitory effect increased, all cells removed (A549 cells [5]; [12]): 4 days | time at which decrease of cell viability / inhibitory effect started (A549 cells [5]; [12]): 48 h | inhibition of proliferation (H358 cells [6]; H358, 30 μM or more, 72 hours): inhibited the proliferation of non-small cell lung cancer cells to a similar level | difference between IC50 of paclitaxel and ONG41008 (H358 cells [6]; H358, 72 hours, FIG. 9): 14 fold | apoptosis (A549 cells [7]; A549, 48 hours of treatment): apoptosis was observed | apoptosis (A549 cells [7]; A549, 72 hours of treatment): clearly observed in a compound concentration-dependent manner | IC50 (PANC1; Homo sapiens, PANC-1, PANC1, CCK-8, 72 hours): 11.8 µM | inhibitory effect on proliferation compared to paclitaxel (PANC1; PANC1, 10 μM or more): more excellent inhibitory effect | EC50 (PC3 cells [8]; Homo sapiens, PC-3): 20.4 µM | PC3 apoptosis (PC3 cells [8]; various concentrations): induced PC3 apoptosis in a concentration-dependent manner | IC50 (MCF7): 15.4 µM | cell proliferation of normal cells [9]: did not inhibit cell proliferation | mitotic disruption (H358 cells [10]): observed | NAD biosynthesis (A549 cells [11]; A549): increased | NAD/NADH ratio (change) (A549 cells [11]; A549, FIG. 7c): significantly increased
